Assay results reported in patent publication US11957683B2, “Bicyclic compounds” (Aligos Therapeutics, Inc., priority 2021, dated 2024).

Columns and labels:
[1] = Cell viability by CellTiter-Glo 2.0 (intracellular ATP) in HepG2.117 cells; assay type: cell-based; details: human, CellTiter-Glo 2.0, HepG2.117 cells, 3 days incubation
Protocol: (§1) The following assay procedure describes the HBV antiviral assay, using HepG2.117 cells, which carry a stably integrated genotype D HBV genome under the control of a Tet-off promoter, and intracellular HBV DNA quantification as endpoint. Cell viability is assessed in parallel by measuring the intracellular ATP content using CellTiter-Glo 2.0 (Promega).
(§2) On day 1, medium is removed from each well, the test articles are diluted in culture medium without doxcycyline and 100 μL was added to cell culture wells (9 concentrations, 4-fold dilution). For each plate, 6 untreated (merely DMSO) wells are included. The final concentration of DMSO in the culture medium is 2%. Each plate is prepared in duplicate (one for HBV DNA extraction, one for CellTiter-Glo 2.0 measurement). The cells are incubated at 37° C. and 5% CO2 for 3 days.
(§3) On day 4, cell viability is assessed using CellTiter-Glo 2.0 and cell lysates are prepared for HBV DNA extraction and subsequent quantification by qPCR.
Using the other plates, the cell viability is quantified by CellTiter-Glo 2.0 according to the manufacturer's manual. In brief, 100 μL of reagent solution is added to the culture plates and shaken for 2′. The plates are incubated at rt for 10 min and luminescence signal is subsequently measured on a VarioSkan Lux (ThermoFisher) plate reader.
(§4) Cell viability is calculated as follows: % Cell viability=(luminescence value of test sample)/(average luminescence value of 2% DMSO control)×100%. HBV DNA inhibition was calculated as follows: 100−(HBV DNA copy number of test sample)/(average HBV DNA copy number of 2% DMSO control)×100%. No normalization to entecavir is required due to the excellent dynamic window of this assay. The CC50, EC50 and EC90 values were determined by dose-response curves fitted using non-linear regression.

HBV = assay: HBV-DNA antiviral assay using HepG2.117 cells; assay type: cell-based, HBV genotype D; details: Hepatitis B virus, 72 h; HBV DNA inhibition, intracellular HBV DNA by qPCR, HepG2.117 cells, 3 days incubation; read-out: EC50
Protocol: as §1
On day 0, HepG2.117 cells (which are maintained in routine cell culture with doxycycline present in the medium at a final concentration of 1 μg/mL) are seeded in 96-well plates (white with clear bottom) at a density of 2.0×10^4 cells/well (0.1 mL/well) in medium without doxycycline to induce pgRNA transcription and subsequent formation of HBV particles. The cells are incubated at 37° C. and 5% CO2.
as §2, §3
Medium is removed from each well and 100 μL of 0.33% NP-40 in H2O was added to each well. Plates are sealed, incubated at 4° C. for 5 mins, vortexed extensively and centrifuged briefly. Next, 35 μL of lysate is added to 65 μL QuickExtract DNA Extraction Solution (Epicentre) in a PCR plate for each well. PCR plate is incubated at 65° C. for 6 mins, 98° C. for 2 mins and finally cooled to 4° C. HBV DNA is then quantified by qPCR with HBV-specific primers and probes as specified in Table 2 using the Bio-Rad SSOAdvanced Universal Probes Supermix on a CFX96 machine (Bio-Rad). The PCR cycle program consisted of 95° C. for 3 mins, followed by 40 cycles at 95° C. for 10 sec and 60° C. for 30 sec.
A DNA standard is prepared by dilution of an IDT gBlock corresponding to the amplicon with concentrations ranging from 10^2 to 10^8 copies/input (i.e., per 4 μL) and used to generate a standard curve by plotting Cq values vs. HBV DNA standard concentration. The quantity of HBV DNA in each sample is determined by interpolating from the standard curve.
as §4

Row | SMILES | CC50 at 3 days [1] | EC50 (HBV)
1 | C=C[C@H](C)Nc1nc2c(c(=O)n1-c1ccc(OC3CC3)cc1)C[C@@H](C)N(C(=O)c1ccc(Br)c(C(F)(F)F)c1)C2 [Compound 12, (R)-7-(4-bromo-3-(trifluoromethyl)benzoyl)-2-((S)-but-3-en-2-ylamino)-3-(4-cyclopropoxyphenyl)-6-methyl-5,6,7,8-tetrahydropyrido[3,4-d]pyrimidin-4(3H)-one] | > 50000 nM | < 50 nM
2 | C=C[C@H](C)Nc1nc2c(c(=O)n1-c1ccc3c(c1)nnn3C)C[C@@H](C)N(C(=O)c1ccc(Br)c(C(F)(F)F)c1)C2 [Compound 13, (R)-7-(4-bromo-3-(trifluoromethyl)benzoyl)-2-(((S)-but-3-en-2-yl)amino)-6-methyl-3-(1-methyl-1H-benzo[d][1,2,3]triazol-5-yl)-5,6,7,8-tetrahydropyrido[3,4-d]pyrimidin-4(3H)-one] | 48000 nM | < 50 nM
3 | CNC(=O)c1ccc(-n2c(C#CC(C)(C)N)nc3c(c2=O)C[C@@H](C)N(C(=O)c2ccc(Br)c(C(F)(F)F)c2)C3)cc1 [Compound 14, (R)-4-(2-(3-amino-3-methylbut-1-yn-1-yl)-7-(4-bromo-3-(trifluoromethyl)benzoyl)-6-methyl-4-oxo-5,6,7,8-tetrahydropyrido[3,4-d]pyrimidin-3(4H)-yl)-N-methylbenzamide] | > 500 nM | 50 to 500 nM
4 | C=CC(Nc1nc2c(c(=O)n1-c1ccc(C(=O)NC)cc1)C[C@@H](C)N(C(=O)c1ccc(Br)c(C(F)(F)F)c1)C2)C1CCC1 (some centres unmarked) [Compound 15] | > 500 nM | < 50 nM
5 | C=CC(COC)Nc1nc2c(c(=O)n1-c1ccc(C(=O)NC)cc1)C[C@@H](C)N(C(=O)c1ccc(Br)c(C(F)(F)F)c1)C2 (some centres unmarked) [Compound 16] | > 500 nM | < 50 nM
6 | C=C[C@H](C)Nc1nc2c(c(=O)n1-c1ccc3c(c1)ncn3C)C[C@@H](C)N(C(=O)c1ccc(Br)c(C(F)(F)F)c1)C2 [Compound 17, (R)-7-(4-bromo-3-(trifluoromethyl)benzoyl)-2-(((S)-but-3-en-2-yl)amino)-6-methyl-3-(1-methyl-1H-benzo[d]imidazol-5-yl)-5,6,7,8-tetrahydropyrido[3,4-d]pyrimidin-4(3H)-one] | > 500 nM | < 50 nM
7 | C=C[C@@H](C)Nc1nc2c(c(=O)n1-c1ccc3c(c1)ncn3C)C[C@@H](C)N(C(=O)c1ccc(Br)c(C(F)(F)F)c1)C2 [Compound 18, (R)-7-(4-bromo-3-(trifluoromethyl)benzoyl)-2-(((R)-but-3-en-2-yl)amino)-6-methyl-3-(1-methyl-1H-benzo[d]imidazol-5-yl)-5,6,7,8-tetrahydropyrido[3,4-d]pyrimidin-4(3H)-one] | > 500 nM | < 50 nM
8 | C=C[C@@H](C)Nc1nc2c(c(=O)n1-c1ccc(C(=O)NC)c(Cl)c1)C[C@@H](C)N(C(=O)c1ccc(Br)c(C(F)(F)F)c1)C2 [Compound 19, 4-((R)-7-(4-bromo-3-(trifluoromethyl)benzoyl)-2-(((R)-but-3-en-2-yl)amino)-6-methyl-4-oxo-5,6,7,8-tetrahydropyrido[3,4-d]pyrimidin-3(4H)-yl)-2-chloro-N-methylbenzamide] | > 500 nM | < 50 nM
9 | C=C[C@H](C)Nc1nc2c(c(=O)n1-c1ccc(C(=O)NC)c(Cl)c1)C[C@@H](C)N(C(=O)c1ccc(Br)c(C(F)(F)F)c1)C2 [Compound 20, 4-((R)-7-(4-bromo-3-(trifluoromethyl)benzoyl)-2-(((S)-but-3-en-2-yl)amino)-6-methyl-4-oxo-5,6,7,8-tetrahydropyrido[3,4-d]pyrimidin-3(4H)-yl)-2-chloro-N-methylbenzamide] | 2950 nM | < 50 nM
10 | C=C[C@@H](C)Nc1nc2c(c(=O)n1-c1ccc(-c3nncn3C)cc1)C[C@@H](C)N(C(=O)c1ccc(Br)c(C(F)(F)F)c1)C2 [Compound 22, (R)-7-(4-bromo-3-(trifluoromethyl)benzoyl)-2-(((R)-but-3-en-2-yl)amino)-6-methyl-3-(4-(4-methyl-4H-1,2,4-triazol-3-yl)phenyl)-5,6,7,8-tetrahydropyrido[3,4-d]pyrimidin-4(3H)-one] | > 50000 nM | < 50 nM
